The values that follow come from PubChem BioAssay AID1259411 (Chemical Carcinogenesis Research Information System (CCRIS), 2018).

Calls of active or inactive are those of the source. No rule for the calls is given here.

This series has as its system rodent carcinogenicity bioassays, tumor incidence. As to the kind of experiment: CCRIS carcinogenicity studies. A digest of the protocol:
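Archive of carcinogenicity, mutagenicity, tumor promotion and tumor inhibition results drawn from journals, NCI reports and other sources, expert-reviewed; covers 1985-2011 and is no longer updated.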

Turning to `ClC(Br)Br`, the carcinogen call is, setting by setting: (Species: MOUSE, Strain/Sex: B6C3F1/FEMALE, Route: GAVAGE, Dose: 0, 50, 100 MG/KG IN CORN OIL 5 D/WK FOR 105 WK (STUDY DURATION: 105 WK), Dose: 0, 50, 100 MG/KG IN CORN OIL 5 D/WK FOR 105 WK (STUDY DURATION: 105 WK), Tumor Site: Type of Lesion: LIVER: HEPATOCELLULAR ADENOMA, HEPATOCELLULAR ADENOMA OR CARCINOMA) “active; positive”; (Species: MOUSE, Strain/Sex: B6C3F1/MALE, Route: GAVAGE, Dose: 0, 50, 100 MG/KG IN CORN OIL 5 D/WK FOR 105 WK (STUDY DURATION: 105 WK), Dose: 0, 50, 100 MG/KG IN CORN OIL 5 D/WK FOR 105 WK (STUDY DURATION: 105 WK), Tumor Site: Type of Lesion: LIVER: HEPATOCELLULAR CARCINOMA, HEPATOCELLULAR ADENOMA OR CARCINOMA) “equivocal”; (Species: RAT, Strain/Sex: F344/FEMALE, Route: GAVAGE, Dose: 0, 40, 80 MG/KG IN CORN OIL 5 D/WK FOR 104 WK (STUDY DURATION: 105 WK), Dose: 0, 40, 80 MG/KG IN CORN OIL 5 D/WK FOR 104 WK (STUDY DURATION: 105 WK)) “inactive; negative”; (Species: RAT, Strain/Sex: F344/MALE, Route: GAVAGE, Dose: 0, 40, 80 MG/KG IN CORN OIL 5 D/WK FOR 104 WK (STUDY DURATION: 105 WK), Dose: 0, 40, 80 MG/KG IN CORN OIL 5 D/WK FOR 104 WK (STUDY DURATION: 105 WK)) “inactive; negative”.
Take `Cc1c2c(c(C)c3c1ccc1ccccc13)CCCC2`: the carcinogen call (Species: MOUSE, Strain/Sex: SWISS/FEMALE, Route: DERMAL, Dose: 0, 41 UG IN ACETONE (0.2%) 2/WK FOR 65 WK FOR A TOTAL DOSE OF 0, 5.3 MG (STUDY DURATION: 80 WK), Dose: 0, 41 UG IN ACETONE (0.2%) 2/WK FOR 65 WK FOR A TOTAL DOSE OF 0, 5.3 MG (STUDY DURATION: 80 WK), Tumor Site: Type of Lesion: SKIN: CARCINOMA, SKIN: PAPILLOMA) is “active; positive”.
For the compound `COCCN(N=O)C(N)=O`, the carcinogen call (Species: RAT, Strain/Sex: F344/FEMALE, Route: INTRAVESICULAR, Dose: 0, 3.2 MG 2/WK FOR 17 WK (STUDY DURATION: LIFETIME), Tumor Site: Type of Lesion: BLADDER: TUMOR) is “active; positive”.
In the case of `CC(C)n1c(/C=C/[C@H](O)C[C@H](O)CC(=O)O)c(-c2ccc(F)cc2)c2ccccc21`, the carcinogen call (Species: MOUSE, Strain/Sex: CD-1/FEMALE (70/GROUP), Route: ORAL (GAVAGE), Dose: 0, 0.3, 15, 30 MG/KG/D IN 1% CARBOXYMETHYLCELLULOSE FOR 85 WK, Dose: 0, 0.3, 15, 30 MG/KG/D IN 1% CARBOXYMETHYLCELLULOSE FOR 85 WK, Tumor Site: Type of Lesion: FORESTOMACH: SQUAMOUS PAPILLOMAS) was “active; positive”; the carcinogen call (Species: MOUSE, Strain/Sex: CD-1/FEMALE (80/GROUP), Route: ORAL (GAVAGE), Dose: 0, 50, 150, 350 MG/KG/D IN 1% CARBOXYMETHYLCELLULOSE FOR 93 WK, Dose: 0, 50, 150, 350 MG/KG/D IN 1% CARBOXYMETHYLCELLULOSE FOR 93 WK) is “inactive; negative”; the carcinogen call (Species: MOUSE, Strain/Sex: CD-1/FEMALE, Route: GAVAGE, Dose: 0, 0.3, 15, 30 MG/KG/D FOR 52 OR 85 WK (STUDY DURATION: 86 WK), Dose: 0, 0.3, 15, 30 MG/KG/D FOR 52 OR 85 WK (STUDY DURATION: 86 WK), Tumor Site: Type of Lesion: FORESTOMACH: PAPILLOMA) is “active; positive”; the carcinogen call (Species: MOUSE, Strain/Sex: CD-1/FEMALE, Route: GAVAGE, Dose: 0, 50, 150, 350 MG/KG/D FOR 52 OR 84 WK (HIGH DOSE GROUP TERMINATED IN WK 23) (STUDY DURATION: 93 WK), Dose: 0, 50, 150, 350 MG/KG/D FOR 52 OR 84 WK (HIGH DOSE GROUP TERMINATED IN WK 23) (STUDY DURATION: 93 WK)) was “inactive; negative”; the carcinogen call (Species: MOUSE, Strain/Sex: CD-1/MALE (70/GROUP), Route: ORAL (GAVAGE), Dose: 0, 0.3, 15, 30 MG/KG/D IN 1% CARBOXYMETHYLCELLULOSE FOR 85 WK, Dose: 0, 0.3, 15, 30 MG/KG/D IN 1% CARBOXYMETHYLCELLULOSE FOR 85 WK) is “inactive; negative”; the carcinogen call (Species: MOUSE, Strain/Sex: CD-1/MALE (80/GROUP), Route: ORAL (GAVAGE), Dose: 0, 50, 150, 350 MG/KG/D IN 1% CARBOXYMETHYLCELLULOSE FOR 84 WK, Dose: 0, 50, 150, 350 MG/KG/D IN 1% CARBOXYMETHYLCELLULOSE FOR 84 WK) was “inactive; negative”. The carcinogen call was “inactive; negative” (Species: MOUSE, Strain/Sex: CD-1/MALE, Route: GAVAGE, Dose: 0, 0.3, 15, 30 MG/KG/D FOR 52 OR 85 WK (STUDY DURATION: 86 WK), Dose: 0, 0.3, 15, 30 MG/KG/D FOR 52 OR 85 WK (STUDY DURATION: 86 WK)); “inactive; negative” (Species: MOUSE, Strain/Sex: CD-1/MALE, Route: GAVAGE, Dose: 0, 50, 150, 350 MG/KG/D FOR 52 OR 84 WK (HIGH DOSE GROUP TERMINATED IN WK 23) (STUDY DURATION: 84 WK), Dose: 0, 50, 150, 350 MG/KG/D FOR 52 OR 84 WK (HIGH DOSE GROUP TERMINATED IN WK 23) (STUDY DURATION: 84 WK)); “inactive; negative” (Species: RAT, Strain/Sex: CD (SPRAGUE-DAWLEY)/FEMALE (75/GROUP), Route: ORAL (GAVAGE), Dose: 0, 0.03, 0.3, 3 MG/KG/D IN 1% CARBOXYMETHYLCELLULOSE FOR 101 WKS, Dose: 0, 0.03, 0.3, 3 MG/KG/D IN 1% CARBOXYMETHYLCELLULOSE FOR 101 WKS); “inactive; negative” (Species: RAT, Strain/Sex: CD (SPRAGUE-DAWLEY)/FEMALE (75/GROUP), Route: ORAL (GAVAGE), Dose: 0, 6, 9, 18-24 MG/KG/D IN 1% CARBOXYMETHYLCELLULOSE FOR 104 WKS, Dose: 0, 6, 9, 18-24 MG/KG/D IN 1% CARBOXYMETHYLCELLULOSE FOR 104 WKS); “inactive; negative” (Species: RAT, Strain/Sex: CD (SPRAGUE-DAWLEY)/MALE (75/GROUP), Route: ORAL (GAVAGE), Dose: 0, 0.03, 0.3, 3 MG/KG/D IN 1% CARBOXYMETHYLCELLULOSE FOR 95 WKS, Dose: 0, 0.03, 0.3, 3 MG/KG/D IN 1% CARBOXYMETHYLCELLULOSE FOR 95 WKS); “active; positive” (Species: RAT, Strain/Sex: CD (SPRAGUE-DAWLEY)/MALE (75/GROUP), Route: ORAL (GAVAGE), Dose: 0, 6, 9, 18-24 MG/KG/D IN 1% CARBOXYMETHYLCELLULOSE FOR 104 WKS, Dose: 0, 6, 9, 18-24 MG/KG/D IN 1% CARBOXYMETHYLCELLULOSE FOR 104 WKS, Tumor Site: Type of Lesion: THYROID: FOLLICULAR ADENOMA (11/75)). The carcinogen call by setting is: (Species: RAT, Strain/Sex: STRAIN-CD/FEMALE, Route: GAVAGE, Dose: 0, 0.03, 0.3, 3 MG/KG/D FOR 95 WK (STUDY DURATION: 114 WK), Dose: 0, 0.03, 0.3, 3 MG/KG/D FOR 95 WK (STUDY DURATION: 114 WK)) “inactive; negative”; (Species: RAT, Strain/Sex: STRAIN-CD/FEMALE, Route: GAVAGE, Dose: 0, 6, 9, 18-24 MG/KG/D FOR 104 WK (STUDY DURATION: 104 WK), Dose: 0, 6, 9, 18-24 MG/KG/D FOR 104 WK (STUDY DURATION: 104 WK)) “inactive; negative”; (Species: RAT, Strain/Sex: STRAIN-CD/MALE, Route: GAVAGE, Dose: 0, 0.03, 0.3, 3 MG/KG/D FOR 95 WK (STUDY DURATION: 114 WK), Dose: 0, 0.03, 0.3, 3 MG/KG/D FOR 95 WK (STUDY DURATION: 114 WK)) “inactive; negative”; (Species: RAT, Strain/Sex: STRAIN-CD/MALE, Route: GAVAGE, Dose: 0, 6, 9, 18-24 MG/KG/D FOR 104 WK (STUDY DURATION: 104 WK), Dose: 0, 6, 9, 18-24 MG/KG/D FOR 104 WK (STUDY DURATION: 104 WK)) “inactive; negative”.
As to `CCCCNC(=O)NS(=O)(=O)c1ccc(C)cc1`, the carcinogen call by setting is: (Species: MOUSE, Strain/Sex: B6C3F1/FEMALE, Route: ORAL, Dose: 0, 25000, 50000 PPM IN DIET, Dose: 0, 25000, 50000 PPM IN DIET) “inactive; negative”; (Species: MOUSE, Strain/Sex: B6C3F1/MALE, Route: ORAL, Dose: 0, 25000, 50000 PPM IN DIET, Dose: 0, 25000, 50000 PPM IN DIET) “inactive; negative”; (Species: RAT, Strain/Sex: F344/FEMALE, Route: ORAL, Dose: 0, 12000, 24000 PPM IN DIET, Dose: 0, 12000, 24000 PPM IN DIET) “inactive; negative”; (Species: RAT, Strain/Sex: F344/MALE, Route: ORAL, Dose: 0, 12000, 24000 PPM IN DIET, Dose: 0, 12000, 24000 PPM IN DIET) “inactive; negative”.
For `CCCc1cc(=O)[nH]c(=S)[nH]1`, the carcinogen call runs as follows: (Species: HAMSTER, Route: ORAL, Tumor Site: Type of Lesion: THYROID GLAND) “active; positive”; (Species: MOUSE, Route: ORAL, Tumor Site: Type of Lesion: PITUITARY GLAND, THYROID GLAND) “active; positive”; (Species: RAT, Route: ORAL, Tumor Site: Type of Lesion: THYROID GLAND) “active; positive”.
